# Test results published in publication PMC2635417 (The Journal of endocrinology, 2008).
# Entries after “also recorded” stand apart in the source; their conditions may differ. Read-outs that look alike come from different tables or passages of the source. No end group written: not given here.
# Tests used:
# [1] = system: CRH receptors (CRH-R1 and CRH-R2) in αT3-1 cells; type: cell-based, murine; conditions: 1 mM IBMX, p<0.05; for inhibition of CRH-mediated cAMP increase: 10 μM α-helical CRH 9–41 or 1 μM astressin with 100 nM CRH, 3 min; for inhibition of UCN1-mediated cAMP increase: 10 μM α-helical CRH 9–41 or 1 μM astressin with 100 nM UCN1, 3 min
# CRH-R2 in αT3-1 cells = experiment: Antisauvagine; type: cell-based, murine; conditions: 1 μM antisauvagine, 15 min pretreatment; for effect of antisauvagine alone on cAMP: versus vehicle
# αT3-1 cells [2] = conditions: cited from earlier work
# [3] = system: PACAP receptor in LβT2 gonadotrope like cell line; conditions: LβT2 cells; ref Lariviere, et al. 2008; cited from earlier work
# αT3-1 cells [4] = experiment: Total inositol phosphate levels; type: cell-based, murine; conditions: treatment alone; preliminary studies, unpublished data, A. Seasholtz
# α-subunit in αT3-1 cells = conditions: ref Attardi and Winters 1998, Burrin, et al. 1998, Schomerus, et al. 1994, Tsujii, et al. 1995; cited from earlier work
substance,measurement,setting,value
alpha-helical CRH (9–41) [α-helical CRH 9–41],inhibition of CRH-mediated cAMP increase,[1],reduced cAMP values to vehicle-treated levels
same,inhibition of CRH-mediated cAMP increase,[1]; listed as α-helical CRH 9-41,completely blocked; also recorded: completely inhibited
same,inhibition of UCN1-mediated cAMP increase,[1],reduced cAMP values to vehicle-treated levels
same,inhibition of UCN1-mediated cAMP increase,[1]; listed as α-helical CRH 9-41,completely blocked; also recorded: completely inhibited
antisauvagine,repression of UCN1-mediated cAMP increase,"CRH-R2 in αT3-1 cells; then 100 nM UCN1 3 min, partial block",75%
same,inhibition of UCN3-mediated cAMP increase,"CRH-R2 in αT3-1 cells; then 100 nM UCN3 3 min, p<0.05",completely blocked
same,effect of antisauvagine alone on cAMP,CRH-R2 in αT3-1 cells,did not significantly differ from vehicle
same,effect of antisauvagine alone on cAMP,CRH-R2 in αT3-1 cells; listed as AS,no significant difference
astressin,inhibition of CRH-mediated cAMP increase,[1],completely blocked; also recorded: complete suppression; also recorded: completely inhibited; also recorded: significant repressions
same,inhibition of UCN1-mediated cAMP increase,[1],completely blocked; also recorded: complete suppression; also recorded: completely inhibited; also recorded: significant repressions
"gonadotropin- releasing hormone (QHWSYGLRPG; Gonadoliberin-1; UniProt P01148 24-33, looked up) [GnRH]",effect on cAMP levels,"αT3-1 cells [2]; alone, ref McArdle and Counis 1996, McArdle, et al. 1994",does not alter cAMP levels
same,PACAP receptor phosphorylation by PKC,[3],stimulating PACAP receptor phosphorylation by PKC
same,effect on total inositol phosphate levels,αT3-1 cells [4],dramatically increases total inositol phosphate levels
"pituitary adenylyl cyclase activating polypeptide (HSDGIFTDSYSRYRKQMAVKKYLAAVLGKRYKQRVKNK-NH2; ends and bridges not checked; UniProt P18509 132-169, looked up) [PACAP]",α-subunit transcriptional activity / mRNA / expression,α-subunit in αT3-1 cells,increased transcriptional activity and steady state levels of α-subunit mRNA; also recorded: increased α-subunit expression
same,effect on cAMP levels,"αT3-1 cells [2]; ref Attardi and Winters 1998, Burrin, et al. 1998, Schomerus, et al. 1994, Tsujii, et al. 1995",increase intracellular cAMP levels
